PMC6151710 (Molecules : A Journal of Synthetic Chemistry and Natural …, 2017)
Like-named read-outs stand apart in the source and are kept apart here. Blank lines part the entries; values can stand above or below the compound they belong to.

Key:
[1] = Phase I metabolism in human liver microsomes, metabolite quantitation by UPLC-MS/MS MRM; type: in vitro ADME
Protocol: (§1) Phase I Metabolism. […] Subsequently, 150 μL of NADPH solution (final concentration of 1 mM) was added to each reaction mixture. After incubation at 37 °C for 90 min in a shaking water bath, the reaction was terminated by adding 600 μL of ice-cold methanol. The contents were vortexed for 30 s and then centrifuged at 4000 rpm for 15 min. The metabolites of psoralen and isopsoralen in the supernatant were identified by UPLC-MS/MS.
(§2) Metabolite analysis by UPLC-MS/MS. The UPLC/MS/MS method was carried out using a Waters Acquity UPLC Sample Manager and a Waters Acquity UPLC Binary Solvent Manager connected to a Waters Quattro Premier XE triple-quadruple mass spectrometer equipped with a combined ESI probe and Mass Lynx 1.4 software (Waters, Milford, MA, USA). An Acquity UPLC BEH C18 column (1.7 µm, 2.1 mm × 100 mm) was used. The instrument settings were as follows: ESI+; source temperature, 120 °C; dissolution temperature, 350 °C; capillary voltage, 3.2 kV; dissolution N2, 600 L/h; cone N2, 50 L/h. Acquisition was carried out from m/z 50 Da to 1000 Da in the total ion scan mode. MS/MS spectra were acquired from m/z 50 Da to 600 Da in the daughter ion scan mode. The solvent system consisted of solvent A (0.1% CH3COOH) and solvent B (100% ACN). The flow rate was 0.2 mL/min. The gradient elution method was 5 to 80% B over 12 min, followed by 5% B from 12 to 15 min.
(§3) Quantitation analysis of psoralen and isopsoralen metabolites by UPLC-MS/MS. […] The HPLC method and electrospray ionization were performed with the same conditions as those for metabolite analysis by UPLC-MS/MS in liver microsomes, except for the cone (30 V) and collision energy (20 V).

[2] = Phase I metabolism in mice liver microsomes, metabolite quantitation by UPLC-MS/MS MRM; type: in vitro ADME
Protocol: as §1, §2, §3

[3] = system: KunMing (KM) mice; experiment: Hepatotoxicity study in mice (GSH-depleted by BSO, CYP450 inhibition by ABT): ALT, hepatic GSH, histopathology; conditions: for ALT activity with additional ABT treatment / histopathological evaluation of liver, with ABT: 300 mg/kg oral alone or with BSO, plus ABT 100 mg/kg i.p.; for hepatic GSH level with ABT: 300 mg/kg oral plus ABT 100 mg/kg i.p.; for histopathological evaluation of liver, co-treatment with BSO: 300 mg/kg oral plus BSO 650 mg/kg i.p., 6 or 24 h
Protocol: Male 6-week-old KunMing (KM) mice were purchased from the Animal Institute of the Tianjin University of Traditional Chinese Medicine (Tianjin, China), and were used after a 1-week acclimatization period. The animals were housed in mice cages in a unidirectional airflow room under controlled conditions (20–24 °C, 12:12-h light:dark cycles, and free access to water). We assured that all animals received humane care according to the criteria outlined in the “Guide for the Care and Use of Laboratory Animals” prepared by the National Academy of Sciences and published by the National Institutes of Health ((NIH) publication 86–23 revised 1985).
In the hepatotoxicity study, the mice were randomly assigned to 22 groups (n = 10/group). The mice were intraperitoneally injected with BSO (650 mg/kg) in saline (0.2 mL/20 g). The intraperitoneal dosing of ABT (100 mg/kg) in saline (0.2 mL/20 g) was simultaneous with the BSO dosing. […] Food was removed 14–16 h before BSO dosing, and was supplied again 6 h after administration of the test compounds. At 6 and 24 h, blood was collected by eyeball removal, and then the liver was removed. Plasma was separated from these blood samples, and alanine aminotransferase (ALT) was determined with a commercial kit, the GPT-UV test (Nanjing jiancheng Bioengineering Institute). A piece of each liver sample was fixed in 10% formalin, embedded in paraffin wax, sectioned, and stained with hematoxylin and eosin for histopathological evaluation.
Statistical analysis. The results from the serum ALT assay were analyzed by Kruskal–Wallis non-parametric analysis of variance followed by Mann–Whitney’s U test. For the data of the GSH assay and CYP450s relative activity, comparisons between the two groups were made by independent-samples t test. SPASS 11.5 was used for these statistical analyses. Differences were considered significant when p < 0.05 or p < 0.01.

[4] = target: CYP3A4 (Homo sapiens, UniProt P08684); experiment: IC50 shift assay (pre-incubation with/without NADPH); type: in vitro ADME; conditions: for IC50: HLM; for IC50 Shift (fold): IC50 (−) NADPH versus (+) NADPH pre-incubation
Protocol: IC50 shift assay. In the present study, an IC50 shift assay was performed using a two-step procedure. […] After pre-incubation, a 0.02 mL aliquot of the mixture was added to a mixture containing a standard CYP substrate (final concentrations at the Km) in 0.18 mL of potassium phosphate buffer to measure CYP activities. After incubation for 15 min at 37 °C, the reactions were ceased by adding four volumes of pre-cooled methanol. The supernatants were centrifuged at 14,000 rpm for 15 min and then stored at −20 °C until the LC/MS/MS analysis of metabolites.
Analysis of samples. The LC/MS/MS method was conducted as described in [59].
IC50 value calculation. The IC50 value was calculated using GraphPad Prism (version 4.0) software (GraphPad Software, San Diego, CA, USA).

[5] = system: mice; conditions: oral 40 mg daily for 28 days in mice; cited from earlier work
[6] = system: animals; set-up: method as in PMID 19640237; conditions: 560 mg/kg daily for 12 days; cited from earlier work
[7] = system: patients; set-up: method as in doi:10.5021/ad.1995.7.1.51; conditions: 4 of 80 patients, within 3.5–20 months of commencement of PUVA 5-MOP; cited from earlier work
[8] = MRM mode, parent 50 μM, HLM 1.0 mg/mL, NADPH 1 mM, 90 min
[9] = MRM mode, parent 50 μM, MLM 1.0 mg/mL, NADPH 1 mM, 90 min
[10] = 300 mg/kg oral in combination with BSO 650 mg/kg i.p., 6 h
[11] = 300 mg/kg oral in combination with BSO 650 mg/kg i.p., 24 h

CYP3A4, sequence (P08684 whole entry): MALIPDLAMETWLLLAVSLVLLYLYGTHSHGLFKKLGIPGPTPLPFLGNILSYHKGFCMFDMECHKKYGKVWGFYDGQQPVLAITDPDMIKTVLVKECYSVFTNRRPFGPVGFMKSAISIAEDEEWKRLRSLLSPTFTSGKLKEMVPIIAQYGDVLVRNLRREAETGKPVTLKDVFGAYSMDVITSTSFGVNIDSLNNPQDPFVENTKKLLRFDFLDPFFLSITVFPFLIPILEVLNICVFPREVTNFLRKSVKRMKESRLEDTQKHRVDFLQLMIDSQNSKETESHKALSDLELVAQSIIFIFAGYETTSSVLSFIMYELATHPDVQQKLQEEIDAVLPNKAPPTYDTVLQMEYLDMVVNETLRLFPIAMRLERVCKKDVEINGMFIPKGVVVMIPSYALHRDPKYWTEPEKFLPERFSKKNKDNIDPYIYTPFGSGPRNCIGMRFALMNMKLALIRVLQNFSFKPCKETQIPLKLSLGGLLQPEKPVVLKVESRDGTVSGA

Compound: O=C(O)/C=C\c1ccc2occc2c1O [M′3]
Peak Area HLM [1, 8]: 312
Peak Area MLM [2, 9]: 418

Compound: CCCCS(=N)(=O)CCC(N)C(=O)O [BSO, L-buthi-onine-S, R-sulfoxinine, reference compound]
plasma ALT activity after sole treatment ([3]; BSO 650 mg/kg i.p. or ABT 100 mg/kg i.p. alone, at 24 h): no significant changes
hepatic GSH level after treatment with BSO alone ([3]; BSO 650 mg/kg i.p., over 24 h): time-dependent decrease at least for 6 h, while returning to a normal level at 24 h
liver hazard (pathological section) after BSO alone ([3]; BSO 650 mg/kg i.p., over 24 h): without hazard to the liver

Compound: 6-carboxymethyl-7-hydroxyl-coumarin [M′4]
Peak Area HLM [1, 8]: 34,274
Peak Area MLM [2, 9]: 96,828

Compound: O=c1ccc2ccc3occc3c2o1 [Isopsoralen]
IC50 ([4]; IC50 (+) NADPH, 30 min pre-incubation with NADPH): 9.59 ± 1.04 µM
IC50 Shift (fold) [4]: 10.1 fold
IC50 Shift (fold) ([4]; listed as isopsoralen): > 3 fold
IC50 ([4]; IC50 (−) NADPH, 30 min pre-incubation without NADPH): 96.8 ± 2.21 µM
ALT activity with additional ABT treatment [3]: completely suppressed the elevation of ALT activity
histopathological evaluation of liver, with ABT [3]: completely relieved the granular degeneration and vacuolation
plasma ALT activity [3, 10]: 30.08 IU/L
plasma ALT activity [3, 11]: 68.99 IU/L
hepatic GSH level with ABT ([3]; at 24 h): ABT prevented the decrease
histopathological evaluation of liver, co-treatment with BSO [3]: did not aggravate the histopathology
histopathological evaluation of liver ([3]; 300 mg/kg oral, alone, 6 h): weak granular degeneration
plasma ALT activity ([3]; 300 mg/kg oral, alone, 6 h): 22.73 IU/L
histopathological evaluation of liver ([3]; 300 mg/kg oral, alone, 24 h): diffuse vacuolation
plasma ALT activity ([3]; 300 mg/kg oral, alone, 24 h): 43.20 IU/L
hepatic GSH level ([3]; 300 mg/kg oral, alone, at 24 h): 9.94 ± 8.57 µM/g protein
liver injury findings [5]: elevated serum ALT, AST, and/or ALP levels

Compound: O=c1ccc2cc(O)c3occc3c2o1 [M′1]
Peak Area HLM [1, 8]: 1288
Peak Area MLM [2, 9]: 14,513

Compound: COc1c2ccoc2cc2oc(=O)ccc12 [5-MOP, 5-Methoxypsoralen]
liver effect of high-dose treatment [6]: hepatocyte changes
patients with transient elevations of liver enzymes [7]: 5%

Compound: O=c1ccc2c(O)c3ccoc3cc2o1 [M1]
Peak Area HLM [1, 8]: 557
Peak Area MLM [2, 9]: 1019

Compound: O=c1ccc2ccc3c(c2o1)C(O)C(O)O3 (stereo not drawn) [M′5]
Peak Area HLM [1, 8]: 1627
Peak Area MLM [2, 9]: 7725

Compound: O=c1ccc2c(O)cc3occc3c2o1 [M′2]
Peak Area HLM [1, 8]: 1349
Peak Area MLM [2, 9]: 4707

Compound: O=c1ccc2cc3ccoc3c(O)c2o1 [M2]
Peak Area HLM ([1]; human, microsomes, 1.5 h, 50 μM, pH 7.4): 502
Peak Area MLM ([2]; mouse, microsomes, 1.5 h, 50 μM, pH 7.4): 8655

Compound: O=c1ccc2cc3ccoc3cc2o1 [Psoralen]
IC50 ([4]; 30 min pre-incubation with NADPH, read-out: IC50 (+) NADPH): 19.5 ± 1.04 µM
IC50 ([4]; 30 min pre-incubation without NADPH, read-out: IC50 (−) NADPH): > 200 µM
ALT activity with additional ABT treatment [3]: completely suppressed the elevation of ALT activity
histopathological evaluation of liver, with ABT [3]: completely relieved the granular degeneration and vacuolation
plasma ALT activity [3, 10]: 59.90 IU/L
plasma ALT activity [3, 11]: 326.07 IU/L
hepatic GSH level with ABT ([3]; at 24 h): ABT prevented the decrease
histopathological evaluation of liver, co-treatment with BSO [3]: did not aggravate the histopathology
histopathological evaluation of liver ([3]; 300 mg/kg oral, alone, 6 h): diffuse granular degeneration
plasma ALT activity ([3]; 300 mg/kg oral, alone, 6 h): 42.17 IU/L
histopathological evaluation of liver ([3]; 300 mg/kg oral, alone, 24 h): diffuse vacuolation
plasma ALT activity ([3]; 300 mg/kg oral, alone, 24 h): 128.42 IU/L
hepatic GSH level ([3]; 300 mg/kg oral, alone, at 24 h): 11.26 ± 3.67 µM/g protein

The remaining lines, values ahead:

Peak Area HLM [1, 8]: 66,831
Peak Area MLM [2, 9]: 98,864
Compound: O=C(O)Cc1cc2ccc(=O)oc2cc1O [M4, 6-carboxymethyl-7-hydroxyl-coumarin]

Peak Area HLM [1, 8]: 529
Peak Area MLM [2, 9]: 164
Compound: O=c1ccc2c(O)c3ccoc3c(O)c2o1 [M3]

Peak Area HLM [1, 8]: 61,016
Peak Area MLM [2, 9]: 102,180
Compound: O=c1ccc2cc3c(cc2o1)OC(O)C3O (stereo not drawn) [M5]
